One may read the IC50 as the point on the concentration scale where inhibition reaches its midpoint. What is called IC20 is the concentration at which the effect reaches the 20% level.

The target of the series is T1, hERG channel (Homo sapiens, UniProt Q12809).
T1 construct: expressed in transfected cells; host or cells: CHO (Chinese hamster ovary), CHOhERG
Put plainly: hERG channel inhibition assay (patch-clamp, CHOhERG cells). The series is classed as cell-based. The settings on record: for IC50 / IC20: CHOhERG cells, whole-cell patch-clamp; for IC20: human, CHO cells stably expressing hERG (CHOhERG); for hERG IC20/TLR7 IC50 / hERG IC20/TLR8 IC50 / hERG IC20/TLR9 IC50: safety ratio. The essentials: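 Whole-cell voltage-clamp recordings of IKhERG in CHO cells stably expressing human hERG, stimulated at 0.1 Hz. Compound applied at rising concentrations, each held 3–10 min to reach steady state; current amplitude and kinetics compared with pre-drug control set as 100%.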
(The hERG channel carries a current that helps repolarise heart muscle cells.)

T1 sequence (Q12809 whole entry): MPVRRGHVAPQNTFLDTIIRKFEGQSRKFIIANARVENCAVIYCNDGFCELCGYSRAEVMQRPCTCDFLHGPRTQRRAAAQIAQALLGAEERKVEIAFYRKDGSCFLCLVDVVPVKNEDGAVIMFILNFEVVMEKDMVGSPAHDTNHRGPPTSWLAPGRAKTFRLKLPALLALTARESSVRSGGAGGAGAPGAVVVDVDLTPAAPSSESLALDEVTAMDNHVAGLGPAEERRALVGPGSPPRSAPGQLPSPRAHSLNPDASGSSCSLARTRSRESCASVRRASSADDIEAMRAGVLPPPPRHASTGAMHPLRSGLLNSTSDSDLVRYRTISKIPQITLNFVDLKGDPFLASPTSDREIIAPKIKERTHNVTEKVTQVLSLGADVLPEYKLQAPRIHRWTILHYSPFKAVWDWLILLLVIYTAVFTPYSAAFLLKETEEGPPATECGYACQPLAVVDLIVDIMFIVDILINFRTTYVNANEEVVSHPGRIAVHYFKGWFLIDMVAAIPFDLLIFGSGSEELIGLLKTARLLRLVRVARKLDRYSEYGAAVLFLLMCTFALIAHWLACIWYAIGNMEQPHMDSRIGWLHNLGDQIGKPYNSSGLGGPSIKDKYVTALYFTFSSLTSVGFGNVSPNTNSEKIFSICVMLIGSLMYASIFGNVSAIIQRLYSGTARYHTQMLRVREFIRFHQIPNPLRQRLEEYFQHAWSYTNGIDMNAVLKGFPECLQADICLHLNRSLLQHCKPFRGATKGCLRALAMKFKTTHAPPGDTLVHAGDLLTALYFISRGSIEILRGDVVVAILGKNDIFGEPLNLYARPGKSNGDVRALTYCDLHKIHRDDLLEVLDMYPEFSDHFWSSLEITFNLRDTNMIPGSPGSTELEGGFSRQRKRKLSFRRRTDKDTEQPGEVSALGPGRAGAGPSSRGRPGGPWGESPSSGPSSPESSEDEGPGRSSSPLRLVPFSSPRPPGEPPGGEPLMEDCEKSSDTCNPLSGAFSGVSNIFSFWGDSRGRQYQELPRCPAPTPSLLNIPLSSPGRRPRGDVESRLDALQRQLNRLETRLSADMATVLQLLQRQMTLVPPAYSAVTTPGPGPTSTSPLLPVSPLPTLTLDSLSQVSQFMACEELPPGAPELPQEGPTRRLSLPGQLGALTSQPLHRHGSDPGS

In the case of `[2H]c1ccc2c(N3C[C@@H]4CN(Cc5ccc(N[C@H]6CNC[C@H]6F)nc5C)CCN4[C@H](C)C3)ccc(C#N)c2n1` [Example 82, 5-[(4R,9aS)-8-[[6-[[(3S,4R)-4-fluoropyrrolidin-3-yl]amino]-2-methyl-3-pyridyl]methyl]-4-methyl-3,4,6,7,9,9a-hexahydro-JH-pyrazino[1,2-a]pyrazin-2-yl]-2-deuterio-quinoline-8-carbonitrile], the IC50 was over 20 µM, the IC20 was over 10 µM, the “hERG IC20/TLR7 IC50” value is on record as over 833 and the “hERG IC20/TLR8 IC50” value was over 3333. The “hERG IC20/TLR9 IC50” value is over 243.

In the case of `[2H]c1ccc2c(N3C[C@@H]4CN(Cc5ccc(N6C[C@@H]7C[C@H]6CN7)nc5C)CCN4[C@H](C)C3)ccc(C#N)c2n1` [Example 92, 5-[(4R,9aS)-8-[[6-[(1S,4S)-2,5-diazabicyclo[2.2.1]heptan-2-yl]-2-methyl-3-pyridyl]methyl]-4-methyl-3,4,6,7,9,9a-hexahydro-1H-pyrazino[1,2-a]pyrazin-2-yl]-2-deuterio-quinoline-8-carbonitrile], the IC50 is over 20 µM, the IC20 is over 10 µM, the “hERG IC20/TLR7 IC50” value is listed as over 1666 and the “hERG IC20/TLR8 IC50” value was over 1111. The “hERG IC20/TLR9 IC50” value is over 294.

Turning to `C[C@@H]1CN(c2ccc(C#N)c3ncccc23)C[C@@H]2CN(Cc3ccc4c(c3)CNCC4)CCN21` (relative stereo) [Example 1], the half-inhibitory concentration (IC50) was over 20 µM, the IC20 was over 10 µM, the “hERG IC20/TLR7 IC50” value is over 588 and the “hERG IC20/TLR8 IC50” value is reported as over 1000. Moreover, the “hERG IC20/TLR9 IC50” value is over 172.

As to `[2H]c1ccc2c(N3C[C@@H]4CN(Cc5ccc(N6CC7(CN(C)C7)C6)nc5C)CCN4[C@H](C)C3)ccc(C#N)c2n1` [Example 80, 5-[(4R,9aS)-4-methyl-8-[[2-methyl-6-(6-methyl-2,6-diazaspiro[3.3]heptan-2-yl)-3-pyridyl]methyl]-3,4,6,7,9,9a-hexahydro-1H-pyrazino[1,2-a]pyrazin-2-yl]-2-deuterio-quinoline-8-carbonitrile], the IC50 is over 20 µM, the IC20 was over 10 µM, the “hERG IC20/TLR7 IC50” value is over 434 and the “hERG IC20/TLR8 IC50” value is over 2000. Besides, the “hERG IC20/TLR9 IC50” value is recorded as over 312.

As to `[2H]c1ccc2c(N3C[C@@H]4CN(Cc5ccc(N6C[C@H]7NCCO[C@@H]7C6)nc5C)CCN4[C@H](C)C3)ccc(C#N)c2n1` [Example 98, 5-[(4R,9aS)-8-[[6-[(4aR,7aR)-3,4,4a,5,7,7a-hexahydro-2H-pyrrolo[3,4-b][1,4]oxazin-6-yl]-2-methyl-3-pyridyl]methyl]-4-methyl-3,4,6,7,9,9a-hexahydro-1H-pyrazino[1,2-a]pyrazin-2-yl]-2-deuterio-quinoline-8-carbonitrile], the IC50 was over 20 µM, the IC20 is over 10 µM, the “hERG IC20/TLR7 IC50” value is on record as over 416 and the “hERG IC20/TLR8 IC50” value is over 1000. Also, the “hERG IC20/TLR9 IC50” value is given as over 172.

Consider `[2H]c1ccc2c(N3C[C@@H]4CN(Cc5ccc(N6CC7CNCC(C6)O7)nc5C)CCN4[C@H](C)C3)ccc(C#N)c2n1` [Example 83, 5-[(4R,9aS)-4-methyl-8-[[2-methyl-6-(9-oxa-3,7-diazabicyclo[3.3.1]nonan-3-yl)-3-pyridyl]methyl]-3,4,6,7,9,9a-hexahydro-1H-pyrazino[1,2-a]pyrazin-2-yl]-2-deuterio-quinoline-8-carbonitrile], for which the IC50 is over 20 µM, the IC20 was over 10 µM, the “hERG IC20/TLR7 IC50” value is over 588 and the “hERG IC20/TLR8 IC50” value is reported as over 1428. For the same compound, the “hERG IC20/TLR9 IC50” value is on record as over 196.

In the case of `Cc1cc(N2CCNCC2)cnc1N1CCN2[C@@H](C1)CN(c1cc(=O)n(C)c3ncccc13)C[C@H]2C` [Example 93, 4-[(4R,9aR)-4-methyl-8-(3-methyl-5-piperazin-1-yl-2-pyridyl)-3,4,6,7,9,9a-hexahydro-1H-pyrazino[1,2-a]pyrazin-2-yl]-1-methyl-1,8-naphthyridin-2-one], the IC50 was over 20 µM, the IC20 is over 10 µM, the “hERG IC20/TLR7 IC50” value is recorded as over 1000 and the “hERG IC20/TLR8 IC50” value is on record as over 163. Besides, the “hERG IC20/TLR9 IC50” value was over 53.

For the origin of these results see US20220340597A1, “HEXAHYDRO-1H-PYRAZINO[1,2-A]PYRAZINE COMPOUNDS FOR THE TREATMENT OF AUTOIMMUNE DISEASE” (Hoffmann-La Roche Inc., priority 2019, published 2022).
